How the values were obtained:
[1] = test system: CYP2C8; assay: CYP2C8 mRNA expression in human cryopreserved hepatocytes (quantitative PCR); settings: 24 h, 1, 3 and 10 µM
Protocol: (§1) Plateable and interaction-qualified cryopreserved human hepatocytes (Lonza, Walkersville, MD, USA) were thawed in a hepatocyte thawing medium (Lonza) and then seeded at 5 × 10^4 cells per well in collagen-coated 96-well plates (Corning, Corning, NY, USA) with hepatocyte plating medium (Lonza). After 1 h of incubation with 5% CO2 under saturated humidity at 37 °C, the medium was replaced with fresh plating medium. After 4 h of seeding, the media were replaced with maintenance medium (Lonza) containing Matrigel (0.3 mg/ml).
(§2) After removing the medium containing Matrigel from the cells, the cells were treated with each test compound prepared in a maintenance medium (1, 3, and 10 µM). Rifampicin, a well-known CYP2C8 and CYP3A4 inducer, was used as a positive control and treated under the same conditions. […] To obtain the samples to evaluate mRNA levels, the cells were collected 24 h after drug treatment (n = 3 per test compound). […] The concentration of DMSO in the maintenance medium was 0.1%. A cell viability assay using CellTiter-Glo (Promega, Madison, WI, USA) was used to ensure the absence of cell toxicity during treatment with each compound.
RNA isolation and cDNA synthesis were carried out using the Superprep II Cell Lysis & RT Kit (Toyobo, Osaka, Japan) according to the manufacturer’s protocol. […] Data are expressed as fold-changes to the vehicle control.

[2] = test system: CYP2C8; assay: Metabolic activity of paclitaxel in human cryopreserved hepatocytes: 6α-hydroxypaclitaxel production; settings: 72 h treatment at 1–10 µM, then paclitaxel 10 µM 60 min
Protocol: as §1, §2

[3] = target: T1, CYP2C8 (Homo sapiens, UniProt P10632); assay: Inhibition of paclitaxel metabolism in human liver microsome fraction: 6α-hydroxypaclitaxel production; settings: human liver microsomes
T1 sequence (P10632 1-490): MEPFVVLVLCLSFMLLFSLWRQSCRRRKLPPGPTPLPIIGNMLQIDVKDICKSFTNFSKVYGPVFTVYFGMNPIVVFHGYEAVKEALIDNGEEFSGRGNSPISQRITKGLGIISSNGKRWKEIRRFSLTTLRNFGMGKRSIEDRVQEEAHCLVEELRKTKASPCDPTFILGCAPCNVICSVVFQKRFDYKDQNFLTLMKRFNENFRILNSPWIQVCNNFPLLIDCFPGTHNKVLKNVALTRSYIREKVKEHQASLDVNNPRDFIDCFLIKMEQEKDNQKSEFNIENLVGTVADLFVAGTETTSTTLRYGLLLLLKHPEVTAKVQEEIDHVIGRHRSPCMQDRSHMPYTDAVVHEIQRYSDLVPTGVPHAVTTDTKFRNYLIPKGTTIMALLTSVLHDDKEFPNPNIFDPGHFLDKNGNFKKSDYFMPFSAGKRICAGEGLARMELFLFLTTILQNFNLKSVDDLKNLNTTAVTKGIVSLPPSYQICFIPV
Protocol: (§3) Then, 10 µl of 10 mM β-NADPH (Oriental Yeast Co., Ltd., Tokyo, Japan) was added, mixed, and incubated at 37 °C for 140 min. The reaction was stopped by adding 100 µl of ethanol containing 40 µM BHB as an internal standard into the reactant and mixing vigorously. After centrifugation (15,000 × g, 7 min), 10 µl of the supernatant was analyzed using HPLC–MS/MS (Quattro Premier XE, Waters, Milford, MA, USA). The mass spectrometer used an electrospray ionization source in the positive ion mode with multiple reaction monitoring. The analytical column was an Inertsil ODS-4 (2.1 mm i.d. × 100 mm, 3 µm) (GL Sciences Inc., Tokyo, Japan). The mobile phase was delivered using a linear gradient elution system consisting of 0.5% formic acid (A): acetonitrile containing 0.5% formic acid (B), at a flow rate of 0.2 ml/min, with the following gradient profile: 40% B (0 min), increasing from 40 to 70% (0–6 min), and 70% B (6–8 min).

[4] = target: CYP3A4 (Homo sapiens, UniProt P08684); assay: Inhibition of paclitaxel metabolism in human liver microsome fraction: 3'-p-hydroxypaclitaxel production; settings: human liver microsomes
Protocol: as §3

[5] = design: method as in PMID 30974202; settings: rats, oral extract of processed Aconite root 1 g/kg as original crude drug; cited from earlier work
[6] = any concentration from 0.050 to 50 µM
[7] = human, pH 7.4, probe paclitaxel (6α-hydroxypaclitaxel formation)

CYP3A4, sequence (P08684 whole entry): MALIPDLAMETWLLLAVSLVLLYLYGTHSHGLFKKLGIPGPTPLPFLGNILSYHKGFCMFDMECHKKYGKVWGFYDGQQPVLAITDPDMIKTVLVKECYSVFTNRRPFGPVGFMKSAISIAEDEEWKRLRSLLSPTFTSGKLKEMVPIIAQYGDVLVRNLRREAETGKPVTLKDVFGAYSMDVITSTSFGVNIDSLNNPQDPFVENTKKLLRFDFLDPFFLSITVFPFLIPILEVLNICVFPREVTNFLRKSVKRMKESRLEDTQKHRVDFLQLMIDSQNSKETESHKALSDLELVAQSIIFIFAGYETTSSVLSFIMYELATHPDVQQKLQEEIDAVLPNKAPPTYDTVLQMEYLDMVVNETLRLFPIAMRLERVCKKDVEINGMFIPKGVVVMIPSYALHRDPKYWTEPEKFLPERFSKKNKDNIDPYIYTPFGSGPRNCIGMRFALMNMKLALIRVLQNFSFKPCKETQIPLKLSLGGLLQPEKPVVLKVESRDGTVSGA

In the case of CO[C@H]1/C=C/O[C@@]2(C)Oc3c(C)c(O)c4c(O)c(c(/C=N/N5CCN(C)CC5)c(O)c4c3C2=O)NC(=O)/C(C)=C\C=C\[C@H](C)[C@H](O)[C@@H](C)[C@@H](O)[C@@H](C)[C@H](OC(C)=O)[C@@H]1C [Rifampicin, rifampicin], the “effect on CYP2C8 mRNA expression” value [1] is reported as “significantly induced” and the “effect on production of 6α-hydroxypaclitaxel by human hepatocytes” value [2] is reported as “significantly induced”.
For OC[C@H]1O[C@@H](O[C@@H]2OC=C[C@H]3[C@H](O)[C@@H]4O[C@]4(CO)[C@@H]23)[C@H](O)[C@@H](O)[C@@H]1O [catalpol], the “effect on production of 6α-hydroxypaclitaxel” value ([3]; at 50 µM) was “significantly induced”.
With O=C(O)C1=CO[C@@H](O[C@@H]2O[C@H](CO)[C@@H](O)[C@H](O)[C@H]2O)[C@@H]2C(CO)=CC[C@H]12 [geniposidic acid] the “effect on production of 6α-hydroxypaclitaxel” value ([3]; at 50 µM) was “significantly induced” and the “effect on production of 3'-p-hydroxypaclitaxel” value ([4]; at 50 µM) was “induced”.
With COC(=O)C1=CO[C@@H](O[C@@H]2O[C@H](CO)[C@@H](O)[C@H](O)[C@H]2O)[C@@H]2[C@@H](C)[C@@H](O)C[C@H]12 [loganin] the “effect on production of 6α-hydroxypaclitaxel” value ([3]; at 50 µM) was “significantly induced”.
With C[C@@]12C[C@@]3(O)O[C@@H](O1)[C@]1(COC(=O)c4ccccc4)[C@H]3C[C@@]12O[C@@H]1O[C@H](CO)[C@@H](O)[C@H](O)[C@H]1O [paeoniflorin] the “effect on paclitaxel metabolism (6α-hydroxypaclitaxel production)” value [3, 6] was “did not affect” and the “effect on paclitaxel metabolism (3'-p-hydroxypaclitaxel production)” value [4, 6] was “did not affect”.
Work on O=c1c(O)c(-c2ccc(O)c(O)c2)oc2cc(O)cc(O)c12 [quercetin] yielded an activity at 140 min, 0.3 µM [3, 7] of 49% and an activity at 140 min, 3 µM [3, 7] of 29%.
In the case of neoline, the “induction ratio of 6α-hydroxypaclitaxel production” value ([3]; at 5 µM) is reported as “less than 10%”, the “effect on production of 6α-hydroxypaclitaxel” value ([3]; at 5.0 µM) is reported as “significantly induced” and the “induction ratio of 3'-p-hydroxypaclitaxel production” value ([4]; at 5 µM) is reported as “less than 10%”. The “effect on production of 3'-p-hydroxypaclitaxel” value ([4]; at 5.0 µM) was “significantly induced”, the “effect on production of 3'-p-hydroxypaclitaxel” value ([4]; at 50 µM) was “significantly inhibited” and the “maximum blood concentration of neoline” value [5] was “approximately 80 nM”.
